The values below come from US6620831B2, “Indazoles substituted with 1,1-dioxoisothiazolidine useful as inhibitors of cell proliferation” (LG Life Sciences Ltd., priority 2000, dated 2003).

For this experiment, the target named is T1, CDK2/cyclin A (Homo sapiens, UniProt P24941).
T1 construct: made in house; host or cells: insect ('worm') cells co-infected with baculoviruses
Nature of the experiment: CDK2 inhibitory activity (CDK2/cyclin A, [gamma-32P] ATP, histon H1 or Rb protein substrate). The experiment is classed as biochemical. Conditions: first IC50 column (c1) of Table 1. The source says:
CDK2 enzyme was obtained from either extract from the worm cell co-infected with baculovirus which expresses a CDK2 gene and baculovirus which expresses a cyclin A gene, or active enzyme purified therefrom. CDK4 was also obtained from either extract from the worm cell co-infected with baculovirus which expresses a CDK4 gene and baculovirus which expresses a cyclin D1 gene. As substrates, histon H1 or Rb protein was used for CDK2, and Rb protein for CDK4. The radioactive activities in substrates were determined by reacting compounds diluted with each concentration with a proper quantity of CDK2/cyclin A or CDK4/cyclin D1 and substrate protein, and [gamma-32P labeled] ATP, and then separating the substrates.
Inhibitory abilities of inhibitors according to the present invention for each enzyme activity were expressed as IC50 values, which were determined in accordance with the method as described above.
In turn, `CCOc1ccc(CC(=O)Nc2n[nH]c3ccc(N4CCCS4(=O)=O)cc23)cc1Cl` [Compound 74, 2-(3-chloro-4-ethoxyphenyl)-N-[5-(1,1-dioxo-1λ^6-isothiazolidin-2-yl)-1H-indazol-3-yl]acetamide] yielded an IC50 of less than 100 nM. `NCCOc1ccc(CC(=O)Nc2n[nH]c3ccc(N4CCCS4(=O)=O)cc23)cc1` [Compound 75, 2-[4-(2-aminoethoxy)phenyl]-N-[5-(1,1-dioxo-1λ^6-isothiazolidin-2-yl)-1H-indazol-3-yl]acetamide] came in with an IC50 of less than 100 nM. The result for `CC(=O)Nc1nc(CC(=O)Nc2n[nH]c3ccc(N4CCCS4(=O)=O)cc23)cs1` [Compound 76] reads less than 10000 nM.

Take `O=C(Cc1csc(NCc2ccc(OCc3ccccc3)cc2)n1)Nc1n[nH]c2ccc(N3CCCS3(=O)=O)cc12` [Compound 77, 2-(2-[4-(benzyloxy)benzyl]amino-1,3-thiazol-4-yl)-N-[5-(1,1-dioxo-1λ^6-isothiazolidin-2-yl)-1H-indazol-3-yl]acetamide]: the IC50 was less than 10000 nM.

Turning to `CCOc1cccc(CC(=O)Nc2n[nH]c3ccc(N4CCCS4(=O)=O)cc23)c1` [Compound 78, N-[5-(1,1-dioxo-1λ^6-isothiazolidin-2-yl)-1H-indazol-3-yl]-2-(3-ethoxyphenyl)acetamide], the IC50 is less than 50 nM. For `CCOc1ccc(CC(=O)Nc2n[nH]c3ccc(N4CCCS4(=O)=O)cc23)cc1S(=O)(=O)N1CCOCC1` [Compound 79, N-[5-(1,1-dioxo-1λ^6-isothiazolidin-2-yl)-1H-indazol-3-yl]-2-[4-ethoxy-3-(4-morpholinylsulfonyl)phenyl]acetamide] the value was less than 1000 nM; for `CCOc1ccc(CC(=O)Nc2n[nH]c3ccc(N4CCCS4(=O)=O)cc23)cc1S(N)(=O)=O` [Compound 80, 2-[3-(aminosulfonyl)-4-ethoxyphenyl]-N-[5-(1,1-dioxo-1λ^6-isothiazolidin-2-yl)-1H-indazol-3-yl]acetamide], less than 1000 nM; for `CCOc1ccc(CC(=O)Nc2n[nH]c3ccc(N4CCCS4(=O)=O)cc23)cc1S(=O)(=O)N1CCN(C)CC1` [Compound 81, N-[5-(1,1-dioxo-1λ^6-isothiazolidin-2-yl)-1H-indazol-3-yl]-2-4-ethoxy-3-[(4-methyl-1-piperazinyl)sulfonyl]phenylacetamide], less than 1000 nM. Take `NCCOc1ccc(CC(=O)Nc2n[nH]c3ccc(N4CCCS4(=O)=O)cc23)cc1` [Compound 82, 2-[4-(2-aminoethoxy)phenyl]-N-[5-(1,1-dioxo-1λ^6-isothiazolidin-2-yl)-1H-indazol-3-yl]acetamide]: the IC50 was less than 1000 nM.

As usually defined, the IC50 is the concentration that inhibits the measured activity by half. Low values mean higher potency, high ones lower potency.
